“Also recorded” adds a separate entry of the source. Peptide text beside a SMILES is read from it. * marks the point of attachment. Cbz = O=C(OCc1ccccc1)*
Columns and labels:
20S proteasome = target: T1, 20S proteasome (Bos taurus, UniProt Q2TBP0+Q32KL2); experiment: Labeling of 20S proteasome subunits by tritiated compound, reverse-phase HPLC separation; type: binding, bovine
T1 construct: from tissue; host or cells: bovine brain
Procedure: This peak was isolated and treated with 10 μM [^3H]lactacystin or 10 μM [^3H]β-lactone for 24 h at 25° C. Trifluoroacetic acid (TFA) was added to 0.1%, and the sample was allowed to stand at room temperature for 20 min. Reverse-phase HPLC was then carried out at room temperature using a Vydac C4 column (300 Å/4.6×150 mm) with 20-40% acetonitrile/0.1% TFA over 10 min and then 40-55% acetonitrile/0.1% TFA over 30 min (flow rate=0.8 ml/min). An IN/US β-RAM in-line scintillation detector was used to monitor radioactivity.

[1] = target: T2, 20S proteasome chymotrypsin-like activity (Bos taurus, UniProt Q32KL2); experiment: Kinetics of inhibition of 20S proteasome chymotrypsin-like activity (Suc-LLVY-AMC); type: biochemical, bovine; details: for κassoc = κobs/[I], Chymotrypsin-like activity (Suc-LLVY-AMC): 25° C.
T2 construct: from tissue; host or cells: bovine brain
Procedure: (§1) Experiments involving the proteasome were performed as follows: 20S proteasome (˜5 ng/μl) in 10 mM Tris-HCl, pH 7.5, 1 mM EDTA was incubated at 25° C. in the presence of lactacystin or lactacystin analogs in DMSO or MeOH [not exceeding 5% (v/v)]. Aliquots for fluorescence assay were removed at various times following addition of compound and diluted in 10 mM Tris-HCl, pH 7.5, 1 mM EDTA containing fluorogenic peptide substrates (100 μM final). Suc-LLVY-AMC, Cbz-GGR-βNA and […] (AMC=7-amido-4-methylcoumarin; βNA=β-naphthylamide) were used to assay for the chymotrypsin-like, trypsin-like and peptidylglutamyl-peptide hydrolyzing activities, respectively.
(§2) Fluorescent emission at 460 nm with excitation at 380 nm was measured for AMC-containing substrates, and emission at 410 nm with excitation at 335 nm was measured for βNA-containing substrates. The fluorescence assays were conducted at 25° C., each experiment was performed at least three times, and values represent mean±standard deviation.
(§3) The reversibility of the inhibitory effects was assessed by measuring residual peptidase activity after removal of excess inhibitor by extensive serial dilution/ultrafiltration.

p105 to p50 processing = experiment: Proteasome dependent p105 to p50 processing in transfected COS cells (pulse-chase); type: cell-based, African green monkey; details: 50 μM, 1 h pretreatment, 2 hour chase
Procedure: COS cells were plated onto 100 mm dishes, then, with DEAE-Destran, either mock transfected, or transfected with 3 μg of pcDNA plasmid containing the human p105 cDNA. Forty-eight hrs after transfection, cells were pretreated for 1 hour with 0.5% DMSO, 50 μM calpain inhibitor II, 50 μM MG132, or 10 μM β-lactone. Cells were then pulse labelled with 250 uCi/plate of ^35S-methionine/cysteine for 15 minutes, and either harvested immediately or followed by a 2 hour chase with excess unlabelled methionine and cysteine. Cells were then lysed with SDS/Tris, and proteins were immunoprecipitated with anti-p50 antibodies (recognize the N-terminal half of the p105 protein). These proteins were then separated on a 10% SDS-polyacrylamide gel, which was then fixed, dried, and exposed to autoradiographic film.

IκB-α = experiment: TNF-α dependent degradation of IκB-α in Hela cells (immunoblot); type: cell-based, human; details: 40 μM, 1 h pretreatment, 1,000 U/ml TNF-α
Procedure: Hela cells were plated onto 6-well plates in DME plus 10% fetal calf serum (3 mls/well). Cells were then pretreated with 0.125% DMSO 40 μM […] (carbobenzoxyl-leucinyl-leucinyl-leucinal-H)(40 μM, lanes 103), or 5 μM β-lactone for one hour, followed by treatment with 1,000 U/ml TNF-α or phosphate buffered saline (PBS). Cells were harvested after 0 min, 20 min, or 40 min of further incubation at 37° C. Cells were then lysed in buffer containing NP-40 and protease inhibitors, and the proteins separated on a 10% SDS-polyacrylamide gel. The proteins were then transferred to nitrocellulose and probed with antibodies against the C-terminal 20 amino acids of human IκB-α.

PC12 cells = details: Tsubuki et al. 1993; cited from earlier work
[2] = target: T3, 20S proteasome trypsin-like activity (Bos taurus, UniProt Q2TBP0); experiment: Kinetics of inhibition of 20S proteasome trypsin-like activity (Cbz-GGR-βNA); type: biochemical, bovine
T3 construct: from tissue; host or cells: bovine brain
Procedure: as §1, §2, §3

[3] = target: 20S proteasome peptidylglutamyl-peptide hydrolyzing activity (Bos taurus, UniProt Q3MHN0)
Procedure: as §1, §2, §3

α-Chymotrypsin = α-Chymotrypsin (Bos taurus, UniProt P00766, DEL14-15/DEL147-148); experiment: Selectivity of protease inhibition: α-chymotrypsin; type: biochemical
Trypsin = target: T4, Trypsin (Bos taurus, UniProt P00760); experiment: Selectivity of protease inhibition: trypsin; type: biochemical
T4 construct: gene PRSS1
T4 sequence (P00760 24-246): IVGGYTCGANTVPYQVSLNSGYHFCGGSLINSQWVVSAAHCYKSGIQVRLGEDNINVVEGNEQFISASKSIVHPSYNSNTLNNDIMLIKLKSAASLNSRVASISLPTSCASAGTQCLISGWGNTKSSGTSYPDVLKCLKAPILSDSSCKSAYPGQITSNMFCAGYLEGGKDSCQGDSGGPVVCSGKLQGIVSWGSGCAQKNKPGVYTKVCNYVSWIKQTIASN

Calpain I = target: T5, Calpain I (Homo sapiens, UniProt P07384); experiment: Selectivity of protease inhibition: calpain I; type: biochemical
T5 sequence (P07384 1-714): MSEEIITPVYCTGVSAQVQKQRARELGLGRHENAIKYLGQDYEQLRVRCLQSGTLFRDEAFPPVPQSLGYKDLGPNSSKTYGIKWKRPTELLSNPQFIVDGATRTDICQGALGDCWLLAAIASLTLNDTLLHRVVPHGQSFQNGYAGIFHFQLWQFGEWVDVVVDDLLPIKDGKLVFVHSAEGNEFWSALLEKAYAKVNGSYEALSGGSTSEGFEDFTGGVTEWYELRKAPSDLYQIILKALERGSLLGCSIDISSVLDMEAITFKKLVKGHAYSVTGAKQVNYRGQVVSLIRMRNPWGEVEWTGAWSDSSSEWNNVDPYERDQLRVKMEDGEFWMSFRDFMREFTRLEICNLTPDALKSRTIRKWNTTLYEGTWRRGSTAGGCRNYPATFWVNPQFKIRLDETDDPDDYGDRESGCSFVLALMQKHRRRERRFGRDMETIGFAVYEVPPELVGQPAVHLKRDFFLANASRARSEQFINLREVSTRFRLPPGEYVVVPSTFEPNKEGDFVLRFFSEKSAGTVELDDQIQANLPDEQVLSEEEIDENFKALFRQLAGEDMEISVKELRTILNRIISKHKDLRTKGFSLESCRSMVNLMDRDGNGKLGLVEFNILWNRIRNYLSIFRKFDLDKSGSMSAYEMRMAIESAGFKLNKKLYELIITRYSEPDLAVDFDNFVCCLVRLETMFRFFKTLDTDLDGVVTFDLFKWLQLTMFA
T5 sequence (P04632 1-268 partner): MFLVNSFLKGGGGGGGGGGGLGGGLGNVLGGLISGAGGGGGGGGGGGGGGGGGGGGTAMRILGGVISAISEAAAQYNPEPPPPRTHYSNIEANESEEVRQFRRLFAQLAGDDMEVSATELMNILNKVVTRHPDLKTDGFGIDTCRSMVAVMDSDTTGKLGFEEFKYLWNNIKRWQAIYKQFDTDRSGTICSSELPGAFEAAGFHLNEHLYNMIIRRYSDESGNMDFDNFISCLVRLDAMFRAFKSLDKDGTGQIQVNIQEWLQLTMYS

Calpain II = target: T6, Calpain II (Homo sapiens, UniProt P17655); experiment: Selectivity of protease inhibition: calpain II; type: biochemical
T6 sequence (P17655 1-700): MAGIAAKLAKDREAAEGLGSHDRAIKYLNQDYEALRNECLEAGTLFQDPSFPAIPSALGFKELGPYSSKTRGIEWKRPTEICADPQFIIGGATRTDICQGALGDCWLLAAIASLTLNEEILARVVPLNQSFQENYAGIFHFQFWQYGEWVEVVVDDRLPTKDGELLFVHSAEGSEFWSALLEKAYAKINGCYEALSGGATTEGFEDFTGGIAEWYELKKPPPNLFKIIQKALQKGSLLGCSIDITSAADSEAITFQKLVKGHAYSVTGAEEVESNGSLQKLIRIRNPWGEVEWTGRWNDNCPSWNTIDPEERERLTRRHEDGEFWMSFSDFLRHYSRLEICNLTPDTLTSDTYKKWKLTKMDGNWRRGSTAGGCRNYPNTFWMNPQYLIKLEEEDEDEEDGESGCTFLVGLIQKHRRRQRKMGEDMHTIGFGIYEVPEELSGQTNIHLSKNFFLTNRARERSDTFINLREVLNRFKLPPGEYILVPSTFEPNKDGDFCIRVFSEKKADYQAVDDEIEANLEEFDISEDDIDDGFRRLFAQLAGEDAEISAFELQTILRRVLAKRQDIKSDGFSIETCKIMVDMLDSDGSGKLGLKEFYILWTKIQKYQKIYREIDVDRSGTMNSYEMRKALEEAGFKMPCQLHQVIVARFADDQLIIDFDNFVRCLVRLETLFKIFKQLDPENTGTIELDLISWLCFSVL
T6 sequence (P04632 1-268 partner): T5 sequence (P04632 1-268 partner)

Papain = target: T7, Papain (Carica papaya, UniProt P00784); experiment: Selectivity of protease inhibition: papain; type: biochemical
T7 sequence (P00784 134-345): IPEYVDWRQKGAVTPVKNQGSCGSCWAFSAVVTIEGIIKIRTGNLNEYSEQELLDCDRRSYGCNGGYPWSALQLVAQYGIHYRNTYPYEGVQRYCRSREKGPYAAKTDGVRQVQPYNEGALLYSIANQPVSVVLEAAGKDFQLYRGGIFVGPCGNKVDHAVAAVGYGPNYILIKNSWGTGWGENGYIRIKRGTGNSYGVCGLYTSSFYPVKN

Cathepsin B = Cathepsin B (Homo sapiens, UniProt P07858); experiment: Selectivity of protease inhibition: cathepsin B; type: biochemical
[4] = residual activity after removal of excess inhibitor by serial dilution/ultrafiltration
[5] = relative to kassoc for chymotrypsin-like activity

## CC(=O)N[C@@H](CSC(=O)[C@]1([C@@H](O)C(C)C)NC(=O)[C@H](C)[C@@H]1O)C(=O)O [[^3H]lactacystin]
20S proteasome; 10 μM, 24 h at 25° C., first peak ~32 kDa (α chain), second peak ~24 kDa (X/MB1)
  association of radioactivity with HPLC-separated proteasome subunit peaks: exclusively with the first two peaks
20S proteasome; 24 hour reaction
  labeling of the first peak (~32 kDa protein): significant labeling

## 6-deoxylactacystin
[1]; compound 12.5 μM
  κassoc = κobs/[I], Chymotrypsin-like activity (Suc-LLVY-AMC): No inhibition

## CSCC[C@@H](C=O)NC(=O)[C@H](CC(C)C)NC(=O)[C@H](CC(C)C)NC(C)=O [calpain inhibitor II] (Ac-Leu-Leu-Met-aldehyde)
p105 to p50 processing
  processing of p105 to p50 (appearance of p50): no effect

## CC(C)C[C@@H](C=O)NC(=O)[C@H](CC(C)C)NC(=O)[C@H](CC(C)C)NC(=O)OCc1ccccc1 [MG132, carbobenzoxyl-leucinyl-leucinyl-leucinal-H] (Cbz-Leu-Leu-Leu-aldehyde)
IκB-α
  degradation of IκB after TNF induction: blocks the degradation
  phosphorylated form of IκB: stabilizes the phosphorylated form
p105 to p50 processing
  processing of p105 to p50 (appearance of p50): completely blocks the appearance of p50
PC12 cells
  optimal concentration for inducing neurite outgrowth: 30 nM

## CC(=O)N[C@@H](CSC(=O)[C@]1([C@@H](O)C(C)C)NC(=O)[C@H](C)[C@@H]1O)C(=O)O [Lactacystin, lactacystin]
[1]; compound 10 μM
  κassoc = κobs/[I], Chymotrypsin-like activity (Suc-LLVY-AMC): 194 ± 15 s^−1M^−1
[1]; read-out: kassoc, apparent second-order rate constant for association, chymotrypsin-like activity
  kinact/KI: 194 ± 15 M⁻¹ s⁻¹
[1]; [4]
  reversibility of inhibition of chymotrypsin-like activity: irreversibly; also recorded: still completely inhibited
[2]; compound 10 μM, 25° C.
  κassoc = κobs/[I], Trypsin-like activity (Cbz-GGR-βNA): 10.1 ± 1.8 s^−1M^−1
[2]; [5]
  trypsin-like activity inhibited more slowly than chymotrypsin-like activity: 20 fold
[2]; [4]
  reversibility of inhibition of trypsin-like activity: irreversibly; also recorded: still completely inhibited
[3]; compound 100 μM, 25° C.
  κassoc = κobs/[I], Peptidylglutamyl-peptide hydrolyzing activity (Cbz-LLE-βNA): 4.2 ± 0.6 s^−1M^−1
[3]; [5]
  PGPH activity inhibited more slowly than chymotrypsin-like activity: 50 fold
[3]; [4]
  reversibility of inhibition of PGPH activity: reversibly; also recorded: return of the catalytic activity
α-Chymotrypsin; 100 μM, Suc-LLVY-AMC, 25° C.
  Effect of lactacystin (100 μM) on α-Chymotrypsin: No inhibition
α-Chymotrypsin; concentration not given
  inhibition of α-chymotrypsin activity: do not inhibit
Trypsin; 100 μM, Cbz-GGR-βNA, 25° C.
  Effect of lactacystin (100 μM) on Trypsin: No inhibition
Trypsin; concentration not given
  inhibition of trypsin activity: do not inhibit
Calpain I; 100 μM, Suc-LLVY-AMC, 25° C.
  Effect of lactacystin (100 μM) on Calpain I: No inhibition
Calpain I; concentration not given
  inhibition of calpain I activity: do not inhibit
Calpain II; 100 μM, Suc-LLVY-AMC, 25° C.
  Effect of lactacystin (100 μM) on Calpain II: No inhibition
Calpain II; concentration not given
  inhibition of calpain II activity: do not inhibit
Papain; 100 μM, Cbz-RR-AMC, 25° C.
  Effect of lactacystin (100 μM) on Papain: No inhibition
Papain; concentration not given
  inhibition of papain activity: do not inhibit
Cathepsin B; 100 μM, Cbz-RR-AMC, 25° C.
  Effect of lactacystin (100 μM) on Cathepsin B: No inhibition
Cathepsin B; concentration not given
  inhibition of cathepsin activity: do not inhibit

## CC(=O)NC(CSC(=O)C1(C(O)C(C)C)NC(=O)C(C)C1O)C(=O)O [(6R,7S)Lactacystin (6-epi,7-epi), (6R,7S)-lactacystin]
[1]; compound 12.5 μM
  κassoc = κobs/[I], Chymotrypsin-like activity (Suc-LLVY-AMC): No inhibition
